Laboratory results from patent US20180110754A1, “CENICRIVIROC FOR THE TREATMENT OF FIBROSIS” (Tobira Therapeutics, Inc., priority 2015, published 2018).

Assay: Study 202: treatment-emergent laboratory abnormalities (DAIDS grades; CPK, ALT, AST, bilirubin)
Assay type: in vivo
Details: for Bilirubin, worst Grade 1, n subjects / Bilirubin, worst Grade 2, n subjects / Bilirubin, worst Grade 3, n subjects / Bilirubin, worst Grade 4, n subjects / CPK increased, worst Grade 3, n subjects / CPK increased, worst Grade 4, n subjects / Creatine phosphokinase (CPK) increased (Grade 3 or 4), n subjects / Fibrinogen decreased (Grade 3 or 4), n subjects / Fibrinogen decreased, worst Grade 3, n subjects / Fibrinogen decreased, worst Grade 4, n subjects / Hemoglobin decreased (Grade 3 or 4), n subjects / Hemoglobin decreased, worst Grade 3, n subjects / Hemoglobin decreased, worst Grade 4, n subjects / Neutrophils decreased (Grade 3 or 4), n subjects / Neutrophils decreased, worst Grade 3, n subjects / Neutrophils decreased, worst Grade 4, n subjects / Phosphate decreased (Grade 3 or 4), n subjects / Phosphate decreased, worst Grade 3, n subjects / Phosphate decreased, worst Grade 4, n subjects / Prothrombin time/INR increased, worst Grade 3, n subjects / Prothrombin time/INR increased, worst Grade 4, n subjects / ALT, worst Grade 1, n subjects / ALT, worst Grade 2, n subjects / ALT, worst Grade 3, n subjects / ALT, worst Grade 4, n subjects / AST, worst Grade 1, n subjects / AST, worst Grade 2, n subjects / AST, worst Grade 3, n subjects / AST, worst Grade 4, n subjects / Alanine aminotransferase (ALT) abnormality, any grade, n subjects / Any Grade 3 or Grade 4 laboratory abnormality, n subjects / Aspartate aminotransferase (AST) abnormality, any grade, n subjects / Aspartate aminotransferase (AST) increased (Grade 3 or 4), n subjects / Bilirubin abnormality, any grade, n subjects: through Week 48
Description: The number of subjects with graded treatment-emergent laboratory abnormalities in selected liver parameters of interest is shown in Table 34. No Grade 4 ALT or AST elevations were observed. Except for one Grade 3 AST elevation, all ALT and AST elevations were Grade 1 or Grade 2. […] All abnormalities in bilirubin were Grade 1 or Grade 2. […]

[1] = All CVC (N = 115), EFV (N = 28)

## CCCCOCCOc1ccc(-c2ccc3c(c2)/C=C(/C(=O)Nc2ccc([S@@+]([O-])Cc4cncn4CCC)cc2)CCCN3CC(C)C)cc1 [CVC, (S)-8-[4-(2-Butoxyethoxy)phenyl]-1-isobutyl-N-(4-{[(1-propyl-1H-imidazol-5-yl)methyl]sulfinyl}phenyl)-1,2,3,4-tetrahydro-1-benzazocine-5-carboxamide]
[1]
  Bilirubin, worst Grade 1, n subjects: 3
  Bilirubin, worst Grade 2, n subjects: 4
  Bilirubin, worst Grade 3, n subjects: 0
  Bilirubin, worst Grade 4, n subjects: 0
  CPK increased, worst Grade 3, n subjects: 8
  CPK increased, worst Grade 4, n subjects: 4
  Creatine phosphokinase (CPK) increased (Grade 3 or 4), n subjects: 12
  Fibrinogen decreased (Grade 3 or 4), n subjects: 2
  Fibrinogen decreased, worst Grade 3, n subjects: 2
  Fibrinogen decreased, worst Grade 4, n subjects: 0
  Hemoglobin decreased (Grade 3 or 4), n subjects: 1
  Hemoglobin decreased, worst Grade 3, n subjects: 0
  Hemoglobin decreased, worst Grade 4, n subjects: 1
  Neutrophils decreased (Grade 3 or 4), n subjects: 2
  Neutrophils decreased, worst Grade 3, n subjects: 2
  Neutrophils decreased, worst Grade 4, n subjects: 0
  Phosphate decreased (Grade 3 or 4), n subjects: 4
  Phosphate decreased, worst Grade 3, n subjects: 4
  Phosphate decreased, worst Grade 4, n subjects: 0
  Prothrombin time/INR increased, worst Grade 3, n subjects: 0
  Prothrombin time/INR increased, worst Grade 4, n subjects: 1
CVC 100 mg
  Subjects with Grade 3 or 4 increases in CPK: 3 subjects
CVC 100 mg (N = 58)
  Any graded (Grade 1-4) treatment-emergent laboratory abnormality, n subjects: 51 (88%)
  Laboratory abnormality, worst Grade 1, n subjects: 21 (36%)
  Laboratory abnormality, worst Grade 2, n subjects: 23 (40%)
  ALT, worst Grade 1, n subjects: 4
  ALT, worst Grade 2, n subjects: 3
  ALT, worst Grade 3, n subjects: 0
  ALT, worst Grade 4, n subjects: 0
  AST, worst Grade 1, n subjects: 8
  AST, worst Grade 2, n subjects: 2
  AST, worst Grade 3, n subjects: 1
  AST, worst Grade 4, n subjects: 0
  Alanine aminotransferase (ALT) abnormality, any grade, n subjects: 7
  Any Grade 3 or Grade 4 laboratory abnormality, n subjects: 7
  Aspartate aminotransferase (AST) abnormality, any grade, n subjects: 11
  Aspartate aminotransferase (AST) increased (Grade 3 or 4), n subjects: 1
  Bilirubin abnormality, any grade, n subjects: 4
  Bilirubin, worst Grade 1, n subjects: 1
  Bilirubin, worst Grade 2, n subjects: 3
  Bilirubin, worst Grade 3, n subjects: 0
  Bilirubin, worst Grade 4, n subjects: 0
  CPK increased, worst Grade 3, n subjects: 2
  CPK increased, worst Grade 4, n subjects: 1
  Creatine phosphokinase (CPK) increased (Grade 3 or 4), n subjects: 3
  Fibrinogen decreased (Grade 3 or 4), n subjects: 0
  Fibrinogen decreased, worst Grade 3, n subjects: 0
  Fibrinogen decreased, worst Grade 4, n subjects: 0
  Hemoglobin decreased (Grade 3 or 4), n subjects: 1
  Hemoglobin decreased, worst Grade 3, n subjects: 0
  Hemoglobin decreased, worst Grade 4, n subjects: 1
  Neutrophils decreased (Grade 3 or 4), n subjects: 2
  Neutrophils decreased, worst Grade 3, n subjects: 2
  Neutrophils decreased, worst Grade 4, n subjects: 0
  Phosphate decreased (Grade 3 or 4), n subjects: 2
  Phosphate decreased, worst Grade 3, n subjects: 2
  Phosphate decreased, worst Grade 4, n subjects: 0
  Prothrombin time/INR increased, worst Grade 3, n subjects: 0
  Prothrombin time/INR increased, worst Grade 4, n subjects: 1
CVC 200 mg
  Subjects with Grade 3 or 4 increases in CPK: 9 subjects
CVC 200 mg (N = 57)
  Any graded (Grade 1-4) treatment-emergent laboratory abnormality, n subjects: 55
  Laboratory abnormality, worst Grade 1, n subjects: 16
  Laboratory abnormality, worst Grade 2, n subjects: 27
  Laboratory abnormality, worst Grade 3 (Any Grade 3 abnormality), n subjects: 9
  Laboratory abnormality, worst Grade 4 (Any Grade 4 abnormality), n subjects: 3
  ALT, worst Grade 1, n subjects: 6
  ALT, worst Grade 2, n subjects: 2
  ALT, worst Grade 3, n subjects: 0
  ALT, worst Grade 4, n subjects: 0
  AST, worst Grade 1, n subjects: 6
  AST, worst Grade 2, n subjects: 4
  AST, worst Grade 3, n subjects: 0
  AST, worst Grade 4, n subjects: 0
  Alanine aminotransferase (ALT) abnormality, any grade, n subjects: 8
  Any Grade 3 or Grade 4 laboratory abnormality, n subjects: 12
  Aspartate aminotransferase (AST) abnormality, any grade, n subjects: 10
  Aspartate aminotransferase (AST) increased (Grade 3 or 4), n subjects: 0
  Bilirubin abnormality, any grade, n subjects: 3
  Bilirubin, worst Grade 1, n subjects: 2
  Bilirubin, worst Grade 2, n subjects: 1
  Bilirubin, worst Grade 3, n subjects: 0
  Bilirubin, worst Grade 4, n subjects: 0
  CPK increased, worst Grade 3, n subjects: 6
  CPK increased, worst Grade 4, n subjects: 3
  Creatine phosphokinase (CPK) increased (Grade 3 or 4), n subjects: 9
  Fibrinogen decreased (Grade 3 or 4), n subjects: 2
  Fibrinogen decreased, worst Grade 3, n subjects: 2
  Fibrinogen decreased, worst Grade 4, n subjects: 0
  Hemoglobin decreased (Grade 3 or 4), n subjects: 0
  Hemoglobin decreased, worst Grade 3, n subjects: 0
  Hemoglobin decreased, worst Grade 4, n subjects: 0
  Neutrophils decreased (Grade 3 or 4), n subjects: 0
  Neutrophils decreased, worst Grade 3, n subjects: 0
  Neutrophils decreased, worst Grade 4, n subjects: 0
  Phosphate decreased (Grade 3 or 4), n subjects: 2
  Phosphate decreased, worst Grade 3, n subjects: 2
  Phosphate decreased, worst Grade 4, n subjects: 0
  Prothrombin time/INR increased, worst Grade 3, n subjects: 0
  Prothrombin time/INR increased, worst Grade 4, n subjects: 0
